Laboratory results: PubChem BioAssay AID449762 (Southern Research Specialized Biocontainment Screening …, 2010)
Inconclusive results are not listed.

Test system: M. tuberculosis H37Rv growth inhibition, 7H9 media
Assay: M. tuberculosis growth inhibition, HTS (AID 449762);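 further: bacterial growth assessed after seven days of incubation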
Settings: for IC90: measured here: IC90 growth inhibition

| Compound | IC50 | IC90 |
| --- | --- | --- |
| COc1cccc2c1C(=O)c1c(O)c3c(c(O)c1C2=O)C[C@@](O)(C(=O)CO)C[C@@H]3O[C@H]1C[C@H](N)[C@@H](O)[C@H](C)O1 | 2.64 µM | 4.86 µM |
| Cn1cnc(Sc2ncnc3nc[nH]c23)c1[N+](=O)[O-] | 9.85 µM | 17 µM |
| CC(=O)c1c(N2CCCC2)[nH]c(-c2ccccc2)nc1=S | 16.2 µM | 67.1 µM |
| Cc1ccc(C(=O)Sc2cccccc2=O)cc1 | 0.96 µM | 2.48 µM |
| Cc1ccc(C(=O)/C=C/C(=O)c2ccc(C)cc2)cc1 | 2.05 µM | 7.63 µM |
| CC(C)(C)OC(=O)NNC(=S)NC1CCCCC1 | 21.2 µM | 23.8 µM |
| Cc1ccc(-n2nc(C)c3c(C)c(CCC(=O)Nc4ccc(CN5CCCC5)cc4)c(C)nc32)cc1 | 13.4 µM | 19.9 µM |
| CCN=c1scc(-c2ccco2)n1/N=C/c1ccc(OC)c(O)c1 | 12.3 µM | 41.8 µM |
| Oc1ccc2ccccc2c1C1Nc2cccc3cccc(c23)N1 | 75 µM | > 100 µM |
| OCC1(Cc2cccc(Cl)c2)CCCN(Cc2ccc3cc(F)ccc3n2)C1 (configuration not stated) | 45.8 µM | 52.1 µM |
| Cc1nn(Cc2ccccc2Cl)c2sc(C(=O)NCCCn3ccnc3)cc12 | 37.5 µM | 49.5 µM |
| CCC(C)c1ccc2oc(-c3ccc(NC(=O)c4ncn[nH]4)cc3)nc2c1 (configuration not stated) | 1.59 µM | 7.52 µM |
| CCCCCOc1ccc(NC2=CC(=O)CCC2)cc1 | 52.4 µM | > 100 µM |
| Cc1cc(C)cc(NC(=O)CCc2ccc(C)o2)c1 | 43 µM | > 100 µM |
| COc1cc2c(-c3ccc4[nH]ccc4c3)c(-c3ccc(C#N)cc3)oc(=O)c2cc1OC | – | > 100 µM |
| Cc1cc2[nH]c3c(c[n+](C)c4ccccc34)c2cc1C | 8.57 µM | 13.1 µM |
| COc1ccc(C2CC(=O)C3=C(C2)NC(C)=C(C#N)C3c2ccc(N(C)C)cc2)cc1 (configuration not stated) | 19.6 µM | 33 µM |
| CC1(C)c2cc(Cl)ccc2-n2c1cc(O)c(-c1ccccc1)c2=O | 4.43 µM | 10.8 µM |
| CCc1ccc2[nH]c(=O)c(CN(CCCN3CCOCC3)C(=O)Nc3cccc(Cl)c3)cc2c1 | 24.1 µM | 30.4 µM |
| c1ccc(/N=C2\N=C(Nc3ccccn3)c3ccccc32)nc1 | 1.08 µM | 1.91 µM |
| CC(OC(=O)c1cnc2ccccc2n1)c1ccccc1Cl (configuration not stated) | 13.1 µM | 37 µM |
| CCc1c(C)sc2nc3c(C(=O)N4CCOCC4)cc(C(=O)c4cc(F)ccc4O)cn3c(=O)c12 | 47.3 µM | > 100 µM |
| CSc1ccccc1C(=O)NC1CCSc2ccccc21 (configuration not stated) | 9.3 µM | > 100 µM |

| Compound | IC50 | IC90 |
| --- | --- | --- |
| CC(C)(C)C(=O)N1CCN(c2ccc(NC(=O)c3ccc([N+](=O)[O-])o3)cc2)CC1 | < 0.2 µM | < 0.2 µM |
| S=C(NCc1ccc(Cl)cc1)NC12CC3CC(CC(C3)C1)C2 | 0.7 µM | 11.6 µM |
| Cc1ccc(C2CC(c3cccs3)=NN2C(=O)CCl)cc1 (configuration not stated) | 0.39 µM | 1.39 µM |
| O=C(/C=C/c1c(F)cccc1Cl)c1ccc(F)cc1 | 23.8 µM | 34.4 µM |
| COc1cc(-c2ccc3oc(-c4ccsc4)cc(=O)c3c2)cc(OC)c1OC | 2.07 µM | 17.6 µM |
| Cc1ccc(/C=C2\C(=O)Nc3ccccc32)o1 | 3.54 µM | 6.03 µM |
| O=C(Oc1c(Cl)cc(Cl)c2cccnc12)c1cccs1 | 0.89 µM | 1.24 µM |
| CC(NC(=O)c1ccccc1Br)C1CC2CCC1C2 (configuration not stated) | 21 µM | > 100 µM |
| COC(=O)c1ccc(/C=C/c2c(-c3ccsc3)oc3ccc(N4CCOCC4)cc23)cc1 | 21.2 µM | 41.2 µM |
| CC1(c2ccc(Cl)c(Cl)c2)NC(=S)N2C1NC(=S)N2c1ccccc1 (configuration not stated) | – | > 100 µM |
| Cc1cccc(-c2oc3ccc(-c4ccc5c(c4)OCO5)cc3c2C#Cc2cncn2C)c1 | 2.9 µM | 3.36 µM |
| Cc1nn(C(C)(C)C)c(NC(=O)c2ccc(Cl)cc2Cl)c1Br | 2.97 µM | > 100 µM |
| Cc1cccc(CSc2nc3c(c(-c4cccs4)c2C#N)CN(C)CC3)c1 | – | > 100 µM |
| Cc1ccc(C)c(NC(CC(=O)c2ccccc2)C(=O)OCC(=O)c2cccs2)c1 (configuration not stated) | 5.16 µM | 7.68 µM |
| COC(=O)c1cc(/C=C/c2ccccc2)on1 | 16.9 µM | > 100 µM |
| CCCc1ccc(NC(=O)C2CCN(c3cnccn3)CC2)cc1 | 53.9 µM | 78.7 µM |
| COc1cccc(N2CCN(c3ncnc4c3[nH]c3ccccc34)CC2C)c1 (configuration not stated) | 24.2 µM | 35.5 µM |
| CCOC(=O)c1cnc(Nc2nc3ccccc3o2)nc1CSC(=S)N(CC)CC | 20.5 µM | 25.4 µM |
| Cc1ccc(N2C(=O)C(F)(F)C2c2ccccc2)cc1 (configuration not stated) | 2.79 µM | 5.46 µM |
| Cc1ccc(-n2c(Cl)c(Cl)nc(Cl)c2=O)cc1 | 5.97 µM | 18.3 µM |
| O=C(Nc1cc(N2CCOCC2)ncn1)NC1(C(F)(F)F)Oc2ccc(Cl)cc2O1 (configuration not stated) | 11.8 µM | 18.9 µM |
| O=[N+]([O-])c1cn(-c2nc(-c3ccco3)cc(C(F)(F)F)n2)cn1 | 1.77 µM | 22 µM |
